System: pathological tau species
Assay: Immunoblot of tau species in P301S mouse brains
Format: in vivo
Settings: P301S mice, 2 mg/kg i.p. once daily for 6 weeks from 17 weeks of age, vs saline
Method: For the efficacy trial in the late disease stage (Xu et al. 2014), P301S mice and wild type littermates received once daily i.p. injections of 2 mg/kg CCT020312 or saline from 17 to 22 weeks of age (n=12 for CCT020312 treated P301S mice, n=9 for other groups); they were analyzed with the Rotarod test in the 23rd week of age.
Twelve hours after the last injection, animals were anesthetized by i.p. injections of pentobarbital at (100 mg/kg) and transcardially perfused with 0.1 M phosphate buffer for 2 min, then fixed for 10 min with 4% paraformaldehyde. Post-fixation of the brain was done in 4% paraformaldehyde at 4° C. for 48 h. Their brains were prepared for histological analysis, as described (Xu et al. 2014). For the immunoblot analysis in P301S mice and wild type mice were sacrificed by cervical dislocation, their brains were frozen on dry ice and stored at −80° C. for Western blot analysis.
Frontal cortex tissue was dissected from the fresh-frozen sample on dry ice and suspended in 750 μl of T-PER Tissue Protein Extraction Reagent (Thermo Fisher Scientific) and 1× cOmplete Protease Inhibitor Cocktail Tablets (Hoffmann-La Roche) and 1× PhosSTOP Phosphatase Inhibitor Cocktail Tablets (Hoffmann-La Roche). The tissue piece was initially ground with a pestle inside a microcentrifuge tube on ice and then homogenized by sonification with Branson Sonifier 450 Analog (Branson, now Thermo Fisher Scientific) with 10×500 ms bursts at intensity level 3 on ice. […] Protein concentrations were determined using the BCA kit (Thermo Fisher Scientific) by heating the samples at 60° C. for 30 minutes and measuring the absorption on the NanoDrop 2000c spectrophotometer (Thermo Fisher Scientific).
20 μg of protein (200 μg for pPERK blots) were adjusted to equal concentrations between samples by dilution with M-PER and subsequently heated at 95° C. for 5 minutes with Roti®-Load 1 (Carl Roth). […] Chemiluminescence was detected with the Gel Doc™ XR System (BioRad) and analyzed with the Image Lab™ software (BioRad), followed by graphical and statistical analysis with Prism 6 (GraphPad Software).

CCN(CC)CCC(=O)N1N=C(c2c(-c3ccccc3)c3cc(Br)ccc3[nH]c2=O)CC1c1ccc(Br)cc1 (stereo not drawn) [CCT020312, 6-bromo-3-[5-(4-bromo-phenyl)-1-(3-diethylamino-propionyl)-4,5-dihydro-1H-pyrazol-3-yl]-4-phenyl-1H-quinolin-2-one]
decreased: AT180-immunoreactivity (paired helical filament tau), immunoblot | CP13-immunoreactivity (S202-phosphorylated tau), immunoblot | MC1-immunoreactivity (conformationally changed tau), immunoblot
